The text below walks through data of EP0908183A1, “Dehydroepiandrosterone or derivatives thereof for increasing the content of hyaluronic acid in skin” (INSTITUTE FOR ADVANCED SKIN RESEARCH INC., priority 1997, dated 1999).

Structures are written as SMILES.

In series [1] the test system is content of hyaluronic acid in skin. Kind of series: content of hyaluronic acid in skin of aging mice after application to dorsal skin. It counts as in vivo. Particulars: aging mice Balb/c; for efficacy in increasing the content of hyaluronic acid in skin when combined with alimidex: DHEA administered simultaneously with aromatase inhibitor alimidex. The text has this: Dehydroepiandrosterone (DHEA) as an ethanol solution at a concentration of 10^-1M was applied to skin of the dorsal part of aging mice (Balb/c, 48 weeks old, in each group consisting of 6 animals) for 5 weeks.
To evaluate the reproducibility of its efficacy, DHEA was applied in various concentrations of 10^-1, 10^-2 and 10^-3M to aging mice (Balb/c, 53 weeks, in each group consisting of 8 animals). Further, in order to see whether DHEA became effective only after it was metabolized to estrodiol, alimidex that inhibited aromatase, which is an enzyme for causing a conversion to estrogens, was administered simultaneously with DHEA. […] This means the concentration of DHEA can be lowered to a tenth of the initial value.

Series [2] is described as follows: acute toxicity tests with mice. As to conditions: mouse, in vivo. The text has this:
It was confirmed that dehydroepiandrosterone (DHEA), which is used as an active ingredient in the present invention, was effective in increasing the hyaluronic acid content of skin to prevent and treat the symptoms of aging of skin. It was also confirmed that dehydroepiandrosterone was effective in inhibiting scar formation during the healing of an injury to skin. In addition, unlike retinoic acid which is teratogenic and estrogens that induce cardiovascular disorders, DHEA in its stable sulfate form has been commercialized as a drug that aids the process of childbirth and is used in clinical applications.

In the case of `CC(C)(C#N)c1cc(Cn2cncn2)cc(C(C)(C)C#N)c1` [alimidex, reference compound], the “content of hyaluronic acid in skin” value in series [1] (aromatase inhibitor applied alone, 53 weeks, Fig. 2) is on record as “no ability to increase the content of hyaluronic acid”.

What is called LD50 is the dose at which mortality reaches 50%. Higher therefore signals a less toxic substance. Regarding `C[C@]12CC[C@H](O)CC1=CC[C@@H]1[C@@H]2CC[C@]2(C)C(=O)CC[C@@H]12` [DHEA, dehydroepiandrosterone], the LD50 in series [2] (iv, injected intravenously) is 274 mg/kg; in series [2] (po, peroral) it was at least 10000 mg/kg; in series [2] (sc, injected subcutaneously) it was 899 mg/kg. Further, the “content of hyaluronic acid in skin” value in series [1] (10^-1M, 53 weeks, reproducibility experiment, Fig. 2) was “statistically significant increase”; in series [1] (10^-2M, 53 weeks, reproducibility experiment, Fig. 2), “statistically significant increase”; in series [1] (ethanol solution 10^-1M applied to dorsal skin for 5 weeks, 48 weeks old, vs control group, Fig. 1) it was “increased the content of hyaluronic acid in skin with a statistically significant difference from the control group”. In addition, the “efficacy in increasing the content of hyaluronic acid in skin when combined with alimidex” value is given as “not suppressed” in series [1] (53 weeks, Fig. 2) and “not lowered” in series [1] (53 weeks, Fig. 2, listed as dehydroepiandrosterone).
